# Laboratory results reported in ChEMBL document CHEMBL1201862, “PubChem BioAssay data set” (2004).
# Active and inactive are the calls of the source.
# How the values were obtained:
# [1] = Luminescence Cell-Based Dose Confirmation HTS to Identify Activators of 5'UTR Stem-Loop Driven Alpha-Synuclein mRNA Translation in H4 Neuroglioblastoma Cells. [Related pubchem assays: 1829 (Project Summary), 1814 (Primary HTS)]; type: functional
# [2] = target: T1, Replicative DNA helicase DnaB (Mycobacterium tuberculosis, UniProt P9WMR3); assay: DnaB intein splicing inhibitors, dose response, biochemical, cell-free fluorescence (AID 449749); type: functional
# T1 sequence (P9WMR3 whole entry): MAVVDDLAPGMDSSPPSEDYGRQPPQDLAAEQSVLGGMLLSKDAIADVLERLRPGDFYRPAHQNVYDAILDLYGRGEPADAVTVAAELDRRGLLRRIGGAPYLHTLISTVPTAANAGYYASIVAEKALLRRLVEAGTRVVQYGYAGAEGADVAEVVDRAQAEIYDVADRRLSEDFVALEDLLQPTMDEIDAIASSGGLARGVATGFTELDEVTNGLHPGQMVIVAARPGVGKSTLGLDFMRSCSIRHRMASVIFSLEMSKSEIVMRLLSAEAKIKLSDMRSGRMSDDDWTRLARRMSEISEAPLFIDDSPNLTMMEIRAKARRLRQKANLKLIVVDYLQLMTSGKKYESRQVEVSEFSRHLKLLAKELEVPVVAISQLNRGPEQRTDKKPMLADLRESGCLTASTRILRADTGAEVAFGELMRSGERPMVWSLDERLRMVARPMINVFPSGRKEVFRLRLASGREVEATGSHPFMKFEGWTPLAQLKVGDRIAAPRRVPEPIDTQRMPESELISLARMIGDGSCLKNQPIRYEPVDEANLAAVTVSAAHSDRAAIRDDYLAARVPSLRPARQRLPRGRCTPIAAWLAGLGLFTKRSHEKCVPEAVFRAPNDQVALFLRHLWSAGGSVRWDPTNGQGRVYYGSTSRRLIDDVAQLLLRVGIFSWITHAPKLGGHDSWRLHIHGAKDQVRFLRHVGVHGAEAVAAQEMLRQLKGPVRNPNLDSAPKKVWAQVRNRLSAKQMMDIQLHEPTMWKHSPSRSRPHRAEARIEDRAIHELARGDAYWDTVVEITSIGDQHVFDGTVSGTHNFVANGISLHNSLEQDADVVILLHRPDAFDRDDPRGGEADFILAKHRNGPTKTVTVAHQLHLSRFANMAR
# [3] = target: T2, Apoptotic protease-activating factor 1 (Homo sapiens, UniProt O14727); type: functional
# T2 sequence (O14727 whole entry): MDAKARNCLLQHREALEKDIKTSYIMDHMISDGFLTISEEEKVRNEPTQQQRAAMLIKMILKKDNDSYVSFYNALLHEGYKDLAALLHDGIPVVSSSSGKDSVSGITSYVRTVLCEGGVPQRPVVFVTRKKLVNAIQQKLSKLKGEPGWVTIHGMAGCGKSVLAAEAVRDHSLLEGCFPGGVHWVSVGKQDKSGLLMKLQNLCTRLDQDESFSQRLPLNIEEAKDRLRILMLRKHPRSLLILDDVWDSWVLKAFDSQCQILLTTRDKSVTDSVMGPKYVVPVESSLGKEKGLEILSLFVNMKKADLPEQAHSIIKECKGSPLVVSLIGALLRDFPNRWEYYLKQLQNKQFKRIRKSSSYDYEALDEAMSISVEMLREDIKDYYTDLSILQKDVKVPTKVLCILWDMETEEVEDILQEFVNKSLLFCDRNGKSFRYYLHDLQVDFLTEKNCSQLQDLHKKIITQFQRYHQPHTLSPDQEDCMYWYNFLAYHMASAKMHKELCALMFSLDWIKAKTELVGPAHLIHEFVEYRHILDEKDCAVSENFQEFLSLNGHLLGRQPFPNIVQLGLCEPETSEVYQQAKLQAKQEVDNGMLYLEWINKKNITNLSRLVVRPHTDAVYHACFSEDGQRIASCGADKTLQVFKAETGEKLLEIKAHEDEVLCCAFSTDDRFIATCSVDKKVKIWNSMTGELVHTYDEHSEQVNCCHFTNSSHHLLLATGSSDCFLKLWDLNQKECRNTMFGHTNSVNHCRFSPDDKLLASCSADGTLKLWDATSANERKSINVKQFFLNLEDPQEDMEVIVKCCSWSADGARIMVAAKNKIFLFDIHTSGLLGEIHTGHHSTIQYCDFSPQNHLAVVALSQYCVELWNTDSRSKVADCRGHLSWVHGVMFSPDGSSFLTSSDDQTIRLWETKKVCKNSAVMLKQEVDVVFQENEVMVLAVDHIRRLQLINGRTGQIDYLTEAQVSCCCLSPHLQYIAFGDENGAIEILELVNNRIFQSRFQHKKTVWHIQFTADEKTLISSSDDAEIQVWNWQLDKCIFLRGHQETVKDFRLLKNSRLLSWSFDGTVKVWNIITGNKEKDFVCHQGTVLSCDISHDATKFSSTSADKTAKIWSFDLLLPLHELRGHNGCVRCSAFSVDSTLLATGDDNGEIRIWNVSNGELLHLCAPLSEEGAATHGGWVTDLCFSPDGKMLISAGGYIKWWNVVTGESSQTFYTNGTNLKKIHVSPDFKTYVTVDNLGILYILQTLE
# [4] = target: Voltage-gated N-type calcium channel alpha-1B subunit/Amyloid beta A4 precursor protein-binding family A member 1 (Homo sapiens, UniProt Q00975+Q02410); type: protein assay
# [5] = cytotoxicity in HEK-293T cells, dose response, cytotoxicity control for BCR NF-kB inhibitor project, luminescence, B-cell screen hits (AID 489021); type: functional, cell-based;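 also: HEK-293T cells carrying an NF-kB luciferase reporter; cells exposed to compound for about 14 hours before viability readout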
# Sequence of Voltage-gated N-type calcium channel alpha-1B subunit/Amyloid beta A4 precursor protein-binding family A member 1 (Q00975 whole entry): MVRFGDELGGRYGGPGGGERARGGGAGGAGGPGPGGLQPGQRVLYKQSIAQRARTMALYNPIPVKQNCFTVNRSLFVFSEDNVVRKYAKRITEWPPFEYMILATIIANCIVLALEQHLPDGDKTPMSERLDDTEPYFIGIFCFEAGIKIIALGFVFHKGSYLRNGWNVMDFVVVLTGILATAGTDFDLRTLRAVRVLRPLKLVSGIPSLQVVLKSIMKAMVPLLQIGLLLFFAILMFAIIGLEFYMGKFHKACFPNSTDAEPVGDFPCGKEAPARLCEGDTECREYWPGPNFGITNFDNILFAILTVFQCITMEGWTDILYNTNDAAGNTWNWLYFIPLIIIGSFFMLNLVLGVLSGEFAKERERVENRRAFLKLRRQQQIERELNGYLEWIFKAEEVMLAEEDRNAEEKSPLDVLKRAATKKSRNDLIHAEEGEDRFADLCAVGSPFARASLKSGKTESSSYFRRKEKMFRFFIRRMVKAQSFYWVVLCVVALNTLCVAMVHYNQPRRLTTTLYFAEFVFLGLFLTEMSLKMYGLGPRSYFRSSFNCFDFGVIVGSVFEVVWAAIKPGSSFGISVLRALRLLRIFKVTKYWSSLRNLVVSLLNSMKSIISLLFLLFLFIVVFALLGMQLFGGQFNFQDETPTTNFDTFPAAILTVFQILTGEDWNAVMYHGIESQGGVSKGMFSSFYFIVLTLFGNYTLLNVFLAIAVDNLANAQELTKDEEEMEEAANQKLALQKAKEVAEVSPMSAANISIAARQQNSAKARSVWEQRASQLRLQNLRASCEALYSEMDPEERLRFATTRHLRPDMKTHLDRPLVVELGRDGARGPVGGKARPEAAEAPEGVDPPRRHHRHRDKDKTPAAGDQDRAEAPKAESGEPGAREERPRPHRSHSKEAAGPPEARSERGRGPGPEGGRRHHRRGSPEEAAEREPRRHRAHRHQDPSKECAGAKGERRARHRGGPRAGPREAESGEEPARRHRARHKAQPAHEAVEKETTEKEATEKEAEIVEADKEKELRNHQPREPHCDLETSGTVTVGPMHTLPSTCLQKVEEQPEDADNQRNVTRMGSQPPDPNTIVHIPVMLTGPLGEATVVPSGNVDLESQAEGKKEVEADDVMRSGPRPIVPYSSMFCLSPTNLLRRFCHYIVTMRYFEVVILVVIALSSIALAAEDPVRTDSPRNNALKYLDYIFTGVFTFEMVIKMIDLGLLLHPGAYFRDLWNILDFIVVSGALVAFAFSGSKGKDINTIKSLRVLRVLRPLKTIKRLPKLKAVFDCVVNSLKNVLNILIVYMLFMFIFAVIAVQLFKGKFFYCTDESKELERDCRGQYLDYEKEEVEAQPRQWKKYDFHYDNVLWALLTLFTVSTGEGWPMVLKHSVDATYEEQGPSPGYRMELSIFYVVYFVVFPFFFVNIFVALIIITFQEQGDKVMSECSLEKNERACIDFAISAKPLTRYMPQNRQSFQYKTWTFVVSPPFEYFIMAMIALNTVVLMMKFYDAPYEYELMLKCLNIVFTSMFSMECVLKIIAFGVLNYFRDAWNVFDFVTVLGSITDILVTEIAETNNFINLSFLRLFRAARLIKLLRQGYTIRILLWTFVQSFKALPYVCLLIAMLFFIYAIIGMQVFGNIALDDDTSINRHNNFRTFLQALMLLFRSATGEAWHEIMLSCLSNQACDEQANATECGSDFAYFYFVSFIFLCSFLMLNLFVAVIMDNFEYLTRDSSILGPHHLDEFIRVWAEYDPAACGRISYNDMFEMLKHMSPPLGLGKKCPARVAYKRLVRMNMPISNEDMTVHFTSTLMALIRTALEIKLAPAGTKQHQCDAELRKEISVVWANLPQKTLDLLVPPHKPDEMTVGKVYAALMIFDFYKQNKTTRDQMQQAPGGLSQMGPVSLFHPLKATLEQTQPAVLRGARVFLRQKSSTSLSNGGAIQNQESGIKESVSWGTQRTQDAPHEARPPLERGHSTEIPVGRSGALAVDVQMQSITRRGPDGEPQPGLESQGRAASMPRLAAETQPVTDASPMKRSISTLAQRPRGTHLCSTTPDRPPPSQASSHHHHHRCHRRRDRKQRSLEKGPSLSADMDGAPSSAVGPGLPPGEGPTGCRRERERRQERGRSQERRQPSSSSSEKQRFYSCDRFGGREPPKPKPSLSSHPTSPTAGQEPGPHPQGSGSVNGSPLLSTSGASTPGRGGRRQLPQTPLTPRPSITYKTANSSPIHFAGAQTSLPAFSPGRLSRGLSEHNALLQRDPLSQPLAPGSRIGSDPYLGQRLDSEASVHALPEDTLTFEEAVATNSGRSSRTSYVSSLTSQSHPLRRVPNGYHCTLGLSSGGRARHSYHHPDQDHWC
# Sequence of Voltage-gated N-type calcium channel alpha-1B subunit/Amyloid beta A4 precursor protein-binding family A member 1 (Q02410 whole entry): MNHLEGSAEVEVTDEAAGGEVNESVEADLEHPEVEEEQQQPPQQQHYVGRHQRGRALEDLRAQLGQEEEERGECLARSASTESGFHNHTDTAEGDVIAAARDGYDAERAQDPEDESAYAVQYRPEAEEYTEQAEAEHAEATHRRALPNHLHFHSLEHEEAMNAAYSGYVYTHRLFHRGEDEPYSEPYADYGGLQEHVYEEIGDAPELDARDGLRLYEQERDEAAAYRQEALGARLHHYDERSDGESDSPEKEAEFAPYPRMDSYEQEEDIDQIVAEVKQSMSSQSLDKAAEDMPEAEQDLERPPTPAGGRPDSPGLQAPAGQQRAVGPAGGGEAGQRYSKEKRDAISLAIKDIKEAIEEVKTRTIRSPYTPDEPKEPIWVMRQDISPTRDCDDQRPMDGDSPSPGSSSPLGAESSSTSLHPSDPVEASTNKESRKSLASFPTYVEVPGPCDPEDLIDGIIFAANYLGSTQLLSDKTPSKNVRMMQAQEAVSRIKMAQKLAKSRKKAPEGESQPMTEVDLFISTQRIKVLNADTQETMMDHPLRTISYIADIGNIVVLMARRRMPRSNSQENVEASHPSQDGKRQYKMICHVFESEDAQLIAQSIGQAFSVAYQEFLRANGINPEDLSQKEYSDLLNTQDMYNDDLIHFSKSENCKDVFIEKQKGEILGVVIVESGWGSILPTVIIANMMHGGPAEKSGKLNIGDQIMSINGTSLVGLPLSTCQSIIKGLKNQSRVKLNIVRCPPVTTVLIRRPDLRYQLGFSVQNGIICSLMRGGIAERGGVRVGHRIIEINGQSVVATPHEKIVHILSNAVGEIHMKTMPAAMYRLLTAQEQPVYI
Compound,EC50 [1],AC50 [2],IC50 [3],IC50 [4],IC50 [5]
COc1ccc(Nc2ccc3c(c2)=NC2(CCCCC2)[N+]=3[O-])cc1,> 120 µM (not active),9.3 µM (active),12.2 µM (active),,
COc1ccc(/C=C2\SC(=S)N(CCC(=O)Nc3ccc(C(=O)O)cc3)C2=O)cc1OC,,,,> 50 µM (inactive),> 80 µM (inactive)
